Measured values published in patent US20250381133A1, “ARTICLE IN THE FORM OF EDIBLE SHEET” (TECOZYME INC, priority 2020, published 2025).

System: mouse tongue
Assay: In vivo biostability / mucoadhesiveness on mouse tongue
Parameters: species or system ICR mice
Conditions: after 60 minutes, high salivary flow; FIG. 19
Procedure: Eight-week-old ICR mice were anesthetized with 100mg/kg of ketamine and 16.7 mg/kg of xylazine cocktail. 10 mg of the oral patch was applied to the tongue. 0.2 mg/kg of Pilocarpine was administered intraperitoneally to stimulate salivation. Tongue tissues were harvested at 30 and 60 minutes post-injection for SEM and fluorescence imaging.

unencapsulated FITC-BSA: FITC-labeled bovine serum albumin, not loaded in a patch
retention of FITC-BSA on the tongue surface: completely washed away
